According to patent US5384309A, “Cyclized peptides and their use as platelet aggregation inhibitors” (Genentech, Inc., priority 1989, dated 1995):
Read-outs that look alike come from different tables or passages of the source. Positions of bridges follow the written chain, without caps; N, C: chain ends. Non-standard residues stand in square brackets, D forms with d. Residues, ends and D or L forms follow the SMILES beside them. No end group written: not given here.

Experiments:
[1] = target: T1, purified human platelet GP llbllla receptor (Homo sapiens, UniProt P05106+P08514); assay: biochemical; type: binding; details: for IC50: ELISA, fibrinogen-coated plates, solubilized GP llbllla, read-out: IC50, inhibition of fibrinogen binding to the GP llbllla platelet receptor
T1 construct: Platelet GP llbllla was prepared by the method of Fitzgerald, et al; from tissue; host or cells: human platelets
T1 sequence (P08514 32-887 limits assumed): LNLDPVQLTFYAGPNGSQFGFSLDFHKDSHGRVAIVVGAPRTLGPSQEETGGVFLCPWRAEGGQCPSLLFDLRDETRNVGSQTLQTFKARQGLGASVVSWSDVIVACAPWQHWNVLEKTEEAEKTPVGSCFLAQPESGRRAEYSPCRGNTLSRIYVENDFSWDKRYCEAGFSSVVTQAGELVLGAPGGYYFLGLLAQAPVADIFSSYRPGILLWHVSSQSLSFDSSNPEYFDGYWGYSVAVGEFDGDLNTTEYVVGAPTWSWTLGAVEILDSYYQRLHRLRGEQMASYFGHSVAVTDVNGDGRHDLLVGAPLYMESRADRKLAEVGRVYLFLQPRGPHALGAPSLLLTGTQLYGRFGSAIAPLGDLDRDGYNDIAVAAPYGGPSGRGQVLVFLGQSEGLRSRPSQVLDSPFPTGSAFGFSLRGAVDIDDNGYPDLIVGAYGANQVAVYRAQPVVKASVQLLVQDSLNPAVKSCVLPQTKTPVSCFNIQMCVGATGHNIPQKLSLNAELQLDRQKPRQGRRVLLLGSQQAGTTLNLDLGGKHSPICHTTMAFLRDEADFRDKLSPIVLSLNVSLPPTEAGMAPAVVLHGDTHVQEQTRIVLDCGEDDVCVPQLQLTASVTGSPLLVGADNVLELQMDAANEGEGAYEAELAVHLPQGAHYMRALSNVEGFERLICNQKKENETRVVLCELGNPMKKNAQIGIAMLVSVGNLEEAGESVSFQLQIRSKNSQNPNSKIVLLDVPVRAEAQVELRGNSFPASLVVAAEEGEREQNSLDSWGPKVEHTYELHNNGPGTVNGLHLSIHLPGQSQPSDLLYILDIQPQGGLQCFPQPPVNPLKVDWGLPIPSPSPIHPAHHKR
T1 sequence (P08514 891-1039 partner limits assumed): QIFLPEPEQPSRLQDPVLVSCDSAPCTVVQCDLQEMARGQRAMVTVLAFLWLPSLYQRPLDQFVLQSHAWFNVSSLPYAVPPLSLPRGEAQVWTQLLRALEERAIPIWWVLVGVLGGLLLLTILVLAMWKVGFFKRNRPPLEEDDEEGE
T1 sequence (P05106 27-788): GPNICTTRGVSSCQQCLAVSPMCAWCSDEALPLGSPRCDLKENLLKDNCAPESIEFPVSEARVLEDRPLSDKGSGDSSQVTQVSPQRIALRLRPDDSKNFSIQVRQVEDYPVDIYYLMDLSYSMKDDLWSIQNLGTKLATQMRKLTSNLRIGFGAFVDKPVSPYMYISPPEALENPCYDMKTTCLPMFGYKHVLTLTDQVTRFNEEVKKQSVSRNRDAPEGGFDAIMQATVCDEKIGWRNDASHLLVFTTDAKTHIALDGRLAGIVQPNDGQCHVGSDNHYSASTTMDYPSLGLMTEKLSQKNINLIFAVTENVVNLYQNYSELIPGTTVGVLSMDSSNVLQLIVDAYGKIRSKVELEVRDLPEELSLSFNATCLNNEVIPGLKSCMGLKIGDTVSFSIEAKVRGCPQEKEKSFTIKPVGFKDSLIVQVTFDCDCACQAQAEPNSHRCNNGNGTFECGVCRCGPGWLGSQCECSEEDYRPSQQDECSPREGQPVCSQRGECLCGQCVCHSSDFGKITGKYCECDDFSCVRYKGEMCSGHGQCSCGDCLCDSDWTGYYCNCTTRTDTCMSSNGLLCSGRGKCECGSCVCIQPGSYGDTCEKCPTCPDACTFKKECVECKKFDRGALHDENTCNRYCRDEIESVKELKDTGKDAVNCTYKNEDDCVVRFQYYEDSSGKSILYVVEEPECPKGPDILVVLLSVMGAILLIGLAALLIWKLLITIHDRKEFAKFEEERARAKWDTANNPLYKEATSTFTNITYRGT
Procedure: In-vitro biological activity of the compounds of Formula I was monitored using a modified fibrinogen--GP llbllla ELISA based on the method of Nachman and Leung (J. Clin. Invest. (1982) 69, 263-269) which measures the inhibition of fibrinogen binding to purified human platelet GP llbllla receptor. Human fibrinogen was prepared by the method of Lipinska, et al. (J. Lab. Grin. Med. (1974) 84, 509-516). Platelet GP llbllla was prepared by the method of Fitzgerald, et al. (Anal. Blochem. (1985) 151,169-177.
Microtiter plates are coated with fibrinogen (10 ug/ml) and then blocked with TACTS buffer containing 0.5% bovine serum albumin (BSA). (TACTS buffer contains 20 mM Tris. HCl, pH 7.5, 0.02% sodium azide, 2 mM calcium chloride, 0.05% Tween 20, 150 mM sodium chloride.) The plate is washed with phosphate buffered saline (PBS) containing 0.01% Tween 20 and the sample to be determined added, followed by addition of solubilized GP llbllla receptor (40 ug/ml) in TACTS, 0.5% BSA. After incubation, the plate is washed and 1 ug/ml of murine anti-platelet monoclonal antibody AP3 (P. J. Newman et al. Blood (1985) 65, 227-232) is added. After another wash a goat anti-mouse IgG conjugated to horseradish peroxidase is added. A final wash is performed and developing reagent buffer (10 mg o-phenylenediamine dihydrochloride, 0.0212% hydrogen peroxide, 0.22 mM citrate, 50 mM phosphate, pH 5.0) is added and then incubated until color develops. The reaction is stopped with 1N sulfuric acid and the absorbance at 492 nm is recorded.
Microtiter plates are coated with fibrinogen (10 ug/ml) and then blocked with TACTS buffer containing 0.5% BSA. (TACTS buffer contains 20mM Tris. HCl, pH 7.5, 0.02% sodium azide, 2 mM calcium chloride, 0.05% Tween 20, 150 mM sodium chloride.) The plate is washed with phosphate buffered saline containing 0.01% Tween 20 and a dilution of the sample to be determined added, followed by addition of solubilized llbllla receptor (40 ug/ml) in TACTS, 0.5% BSA. After incubation, the plate is washed and murine monoclonal anti-platelet antibody AP3 (1 ug/ml) added. After another wash goat and anti-mouse IgG conjugated to horseradish peroxidase is added. A final wash is performed and developing reagent buffer (10 mg o-phenylenediamine dihydrochloride, 0.0212% hydrogen peroxide, 0.22 mM citrate, 50 mM phosphate, pH 5.0) is added and then incubated until color developed. The reaction is stopped with 1N sulfuric acid and the absorbance at 492 nm is recorded.

[2] = target: human platelet rich plasma (PRP) platelets (Homo sapiens, UniProt P05106+P08514); assay: platelet aggregation inhibition in human platelet rich plasma (ADP induced); type: cell-based; details: ADP 8 uM
human platelet rich plasma (PRP) platelets, sequence (P08514 32-1039): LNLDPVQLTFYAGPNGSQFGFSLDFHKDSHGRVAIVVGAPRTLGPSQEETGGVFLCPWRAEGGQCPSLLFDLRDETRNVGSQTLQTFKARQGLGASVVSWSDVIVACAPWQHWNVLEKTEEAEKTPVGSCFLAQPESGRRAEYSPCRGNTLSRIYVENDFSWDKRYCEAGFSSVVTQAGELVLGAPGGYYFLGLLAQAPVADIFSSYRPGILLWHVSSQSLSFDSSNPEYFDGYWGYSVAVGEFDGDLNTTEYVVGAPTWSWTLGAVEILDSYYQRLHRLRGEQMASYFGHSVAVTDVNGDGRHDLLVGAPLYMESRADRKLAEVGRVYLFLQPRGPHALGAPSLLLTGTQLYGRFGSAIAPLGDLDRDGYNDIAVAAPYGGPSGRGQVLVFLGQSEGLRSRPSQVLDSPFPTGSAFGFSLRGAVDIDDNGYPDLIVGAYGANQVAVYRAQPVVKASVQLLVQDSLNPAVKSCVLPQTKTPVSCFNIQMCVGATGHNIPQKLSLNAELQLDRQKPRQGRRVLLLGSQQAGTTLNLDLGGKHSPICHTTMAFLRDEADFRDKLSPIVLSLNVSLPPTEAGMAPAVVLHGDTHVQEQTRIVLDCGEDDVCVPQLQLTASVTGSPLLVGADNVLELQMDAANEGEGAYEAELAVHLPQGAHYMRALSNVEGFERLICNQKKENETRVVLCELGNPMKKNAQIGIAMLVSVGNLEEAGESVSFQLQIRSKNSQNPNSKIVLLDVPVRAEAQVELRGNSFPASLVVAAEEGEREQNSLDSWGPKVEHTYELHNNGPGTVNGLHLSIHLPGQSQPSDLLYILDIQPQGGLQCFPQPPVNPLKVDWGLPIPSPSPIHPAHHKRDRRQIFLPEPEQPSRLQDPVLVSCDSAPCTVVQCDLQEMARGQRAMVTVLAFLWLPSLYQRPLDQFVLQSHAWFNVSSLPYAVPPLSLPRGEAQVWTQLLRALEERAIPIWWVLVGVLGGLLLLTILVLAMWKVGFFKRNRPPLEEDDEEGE
human platelet rich plasma (PRP) platelets, sequence (P05106 27-788): as the sequence (P05106 27-788) above
Procedure: (§1) In addition to the GP llbllla ELISA assay, platelet aggregation assays may be performed in human platelet rich plasma (PRP). Fifty milliliters of whole human blood (9 parts) is drawn on 3.6% sodium citrate (1 part) from a donor who has not taken aspirin or related medications for at least two weeks. The blood is centrifuged at 160 ×g for 10 min at 220° C. and then allowed to stand for 5 min after which the PRP is decanted. Platelet poor plasma (PPP) is isolated from the remaining blood after centrifugation at 2000×g for 25 min. The platelet count of the PRP was diluted to ca. 300000 per microliter with PPP.
A 225 uL aliquot of PRP plus 25 uL of either a dilution of the test sample or a control (PBS) is incubated for 5 min in a Chrono-log Whole Blood Aggregometer at 25° C. An aggregatng agent (collagen, 1 ug/ml; U46619, 100 ng/ml; or ADP, 8 uM) is added and the platelet aggregation recorded.
as §1, with “Fifty” for “In addition to the GP llbllla ELISA assay, platelet aggregation assays may be performed in human platelet rich plasma (PRP). Fifty”, “160×g” for “160 ×g”, “22°” for “220°”
A 225 uL aliquot of PRP plus 25 uL of either a dilution of the test sample or a control (PBS) is incubated for 5 min in a Chrono-log Whole Blood Aggregometer at 25° C. Adenosine diphosphate (ADP, 8 uM) is added and the platelet aggregation recorded.

[3] = GP IIbIIIa receptor assay for inhibition of fibrinogen binding, smaller ratio = more active

Row | Molecule | Ratio of IC50 of test compound to IC50 of Gly-Arg-Gly-Asp-Val [1] | Ratio of IC50 of test compound to IC50 of Gly-Arg-Gly-Asp-Val [1, 3] | IC50 [2] | other results
1 | N=C(N)NCCC[C@H](N)C(=O)NCC(=O)N[C@@H](CC(=O)O)C(=O)N[C@@H](CO)C(=O)O [Arg--Gly--Asp--Ser, reference compound] | > 20 |  |  | 
2 | CC(C)[C@H](NC(=O)[C@H](CC(=O)O)NC(=O)CNC(=O)[C@@H](N)CCCNC(=N)N)C(=O)O [Arg--Gly--Asp--Val, reference compound] (H-RGDV-OH) | 3 |  |  | 
3 | N=C(N)NCCC[C@@H]1NC(=O)CNC(=O)CSC[C@@H](C(=O)O)NC(=O)[C@H](CC(=O)O)NC(=O)CNC1=O [Ex. 2, cyclo-S-acetyl-Gly-Arg-Gly-Asp-Cys-OH] ({CH2CO}-GRGDC-OH; thioether N-5) |  | 0.14 | 8 µM | 
4 | N=C(N)NCCC[C@@H]1NC(=O)[C@@H](CC(N)=O)NC(=O)CSC[C@@H](C(=O)O)NC(=O)[C@H](CC(=O)O)NC(=O)CNC1=O [Ex. 5, cyclo-S-acetyl-(dAsn)-Arg--Gly--Asp--Cys--OH] ({CH2CO}-[dN]RGDC-OH; thioether N-5) | 0.14 |  |  | 
5 | C[C@@H](O)[C@@H]1NC(=O)CSC[C@@H](C(=O)O)NC(=O)[C@H](CC(=O)O)NC(=O)CNC(=O)[C@H](CCCNC(=N)N)NC1=O [Ex. 6, cyclo-S-acetyl-Thr--Arg--Gly--Asp--Cys--OH] ({CH2CO}-TRGDC-OH; thioether N-5) | 0.46 |  |  | 
6 | C[C@H](O)[C@H]1NC(=O)CSC[C@@H](C(=O)O)NC(=O)[C@H](CC(=O)O)NC(=O)CNC(=O)[C@H](CCCNC(=N)N)NC1=O [Ex. 7, Cyclo-S-acetyl-(d-Thr)-Arg-Gly-Asp-Cys-OH] ({CH2CO}-[dT]RGDC-OH; thioether N-5) |  | 0.07 |  | 
7 | C[C@H](O)[C@H]1NC(=O)CSC[C@@H](C(=O)O)NC(=O)[C@H](CC(=O)O)NC(=O)CNC(=O)[C@H](CCCN=C(N)N)NC1=O [Ex. 7, Cyclo-S-acetyl-(d-Thr)-Arg-Gly-Asp-Cys-OH] ({CH2CO}-[dT]RGDC-OH; thioether N-5) |  |  | 0.8 µM | 
8 | C[C@@H]1NC(=O)CSC[C@@H](C(=O)O)NC(=O)[C@H](CC(=O)O)NC(=O)CNC(=O)[C@H](CCCNC(=N)N)NC1=O [Ex. 8, cyclo-S-acetyl-Ala--Arg--Gly--Asp--Cys--OH] ({CH2CO}-ARGDC-OH; thioether N-5) | 0.5 |  |  | 
9 | C[C@H]1NC(=O)CSC[C@@H](C(=O)O)NC(=O)[C@H](CC(=O)O)NC(=O)CNC(=O)[C@H](CCCNC(=N)N)NC1=O [Ex. 9, cyclo-S-acetyl-(dAla)-Arg--Gly--Asp--Cys--OH] ({CH2CO}-[dA]RGDC-OH; thioether N-5) |  | 0.13 | 3 µM | 
10 | N=C(N)NCCC[C@@H]1NC(=O)[C@H](Cc2ccc(O)cc2)NC(=O)CSC[C@@H](C(=O)O)NC(=O)[C@H](CC(=O)O)NC(=O)CNC1=O [Ex. 10, cyclo-S-acetyl-Tyr--Arg--Gly--Asp--Cys--OH] ({CH2CO}-YRGDC-OH; thioether N-5) | 0.38 |  |  | 
11 | N=C(N)NCCC[C@@H]1NC(=O)[C@@H]2CCCN2C(=O)CSC[C@@H](C(=O)O)NC(=O)[C@H](CC(=O)O)NC(=O)CNC1=O [Ex. 12, cyclo-S-acetyl-Pro--Arg--Gly--Asp--Cys--OH] ({CH2CO}-PRGDC-OH; thioether N-5) | 0.46 |  |  | 
12 | N=C(N)NCCC[C@@H]1NC(=O)[C@H]2CCCN2C(=O)CSC[C@@H](C(=O)O)NC(=O)[C@H](CC(=O)O)NC(=O)CNC1=O [Ex. 13, cyclo-S-acetyl-(dPro)-Arg--Gly--Asp--Cys--OH] ({CH2CO}-[dP]RGDC-OH; thioether N-5) |  | 0.05 | 2 µM | 
13 | N=C(N)NCCC[C@@H]1NC(=O)CNC(=O)C(c2ccccc2)SC[C@@H](C(=O)O)NC(=O)[C@H](CC(=O)O)NC(=O)CNC1=O (some centres unmarked) [Ex. 18, cyclo-S-Phenylacetyl-Gly--Arg--Gly--Asp--Cys--OH] |  |  | 3 µM | 
14 | N=C(N)NCCC[C@@H]1NC(=O)CNC(=O)CSC[C@@H](C(=O)O)NC(=O)[C@H](CC(=O)O)NC(=O)CNC1=O [cyclo-S-acetyl-Gly-Arg-Gly-Asp-Cys-OH] ({CH2CO}-GRGDC-OH; thioether N-5) |  |  | 8.5 µM | IC50 [1]: 0.005 µM
15 | GRGDV [Gly--Arg--Gly--Asp--Val, reference compound] [listing 1 of 2 here] |  |  |  | IC50 [1]: 0.02 to 0.04 µM
16 | GRGDV [Gly--Arg--Gly--Asp--Val, reference compound] [listing 2 of 2 here] |  | 1 |  | 
